Source: patent US20260159520A1, “HETEROBIFUNCTIONAL COMPOUNDS AND METHODS OF TREATING DISEASE” (Halda Therapeutics OpCo, Inc., priority 2022, published 2026)

Molecular target: T1, CDK9 (Homo sapiens, UniProt P50750)
T1 construct: made in house; host or cells: E. coli BL21-derived host (T7 phage) or HEK-293 ('BEK-293' [sic])
Assay: KdELECT binding assay, CDK9
Conditions: CDK9, Table 7
Procedure, shortened: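 Phage-tagged or HEK-derived DNA-tagged kinases competed 1 h at room temperature against bead-immobilised biotinylated ligand in SeaBlock/PBS/Tween/DTT buffer, 0.9% DMSO final. Bound kinase eluted with 0.5 μM free ligand and quantified by qPCR; Kd from 11-point 3-fold dilution series.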

T1 sequence (P50750 whole entry): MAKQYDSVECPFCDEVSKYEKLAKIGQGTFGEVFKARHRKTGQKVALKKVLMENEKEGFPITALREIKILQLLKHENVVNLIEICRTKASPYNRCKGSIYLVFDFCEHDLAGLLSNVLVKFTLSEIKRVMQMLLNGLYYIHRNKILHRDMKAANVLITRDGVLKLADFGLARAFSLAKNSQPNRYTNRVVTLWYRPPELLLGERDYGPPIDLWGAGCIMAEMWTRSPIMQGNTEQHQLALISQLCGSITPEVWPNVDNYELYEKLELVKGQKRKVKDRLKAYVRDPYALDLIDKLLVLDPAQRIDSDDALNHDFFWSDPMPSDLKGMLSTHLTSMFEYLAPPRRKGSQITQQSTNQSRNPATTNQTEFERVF

SMILES	Kd [nM]
CCc1cnn2c(NCc3ccc(OCCOCC4CCN(CC5CCN(c6ncc(C(=O)N[C@H]7C(C)(C)[C@H](Oc8ccc(C#N)c(Cl)c8)C7(C)C)cn6)CC5)CC4)nc3)cc(N3CCCC[C@H]3CCO)nc12 [Compound I-45]	< 50
CCc1cnn2c(NCc3ccc(OCCN(C)c4ncc(C(=O)N[C@H]5C(C)(C)[C@H](Oc6ccc(C#N)c(Cl)c6)C5(C)C)cn4)nc3)cc(N3CCCC[C@H]3CCO)nc12 [Compound I-1]	50 to 500
CCc1cnn2c(NCc3ccc(OCCCCOCCOC4CCN(c5ncc(C(=O)N[C@H]6C(C)(C)[C@H](Oc7ccc(C#N)c(Cl)c7)C6(C)C)cn5)CC4)nc3)cc(N3CCCC[C@H]3CCO)nc12 [Compound I-34]	500 to 2500

Further lines, results first:

Kd [nM]	SMILES
500 to 2500	CCc1cnn2c(NCc3ccc(OCCOCCOCCOCCOCCOC4CCN(c5ncc(C(=O)N[C@H]6C(C)(C)[C@H](Oc7ccc(C#N)c(Cl)c7)C6(C)C)cn5)CC4)nc3)cc(N3CCCC[C@H]3CCO)nc12 [Compound I-9]
> 2500	CCc1cnn2c(NCc3ccc(OCCN4CCN(CC5CCN(c6ncc(C(=O)N[C@H]7C(C)(C)[C@H](Oc8ccc(C#N)c(Cl)c8)C7(C)C)cn6)CC5)CC4)nc3)cc(-c3ccccc3)nc12 [Compound I-47, N-((1r,3r)-3-(3-chloro-4-cyanophenoxy)-2,2,4,4-tetramethylcyclobutyl)-2-(4-((4-(2-((5-(((3-ethyl-5-phenylpyrazolo[1,5-a]pyrimidin-7-yl)amino)methyl)pyridin-2-yl)oxy)ethyl)piperazin-1-yl)methyl)piperidin-1-yl)pyrimidine-5-carboxamide]
